molecular target: T1, Recombinant human renin (Homo sapiens, UniProt P00797); assay: In vitro enzymatic activity assay of Renin inhibitors (fluorescence, QXL520/HiLyteFluo488 peptide substrate); format: biochemical; conditions: recombinant human renin 3 nM, 1 μM substrate, 37° C., pH 7.4; values given as ranges; read-out: IC50 of Exemplified Compounds Against Renin
T1 construct: isolate the active form (residues 67-406); made in house; host or cells: FreeStyle 293-F cells (transient expression of pcDNA3.1(+)/hREN)
T1 sequence (P00797 67-406): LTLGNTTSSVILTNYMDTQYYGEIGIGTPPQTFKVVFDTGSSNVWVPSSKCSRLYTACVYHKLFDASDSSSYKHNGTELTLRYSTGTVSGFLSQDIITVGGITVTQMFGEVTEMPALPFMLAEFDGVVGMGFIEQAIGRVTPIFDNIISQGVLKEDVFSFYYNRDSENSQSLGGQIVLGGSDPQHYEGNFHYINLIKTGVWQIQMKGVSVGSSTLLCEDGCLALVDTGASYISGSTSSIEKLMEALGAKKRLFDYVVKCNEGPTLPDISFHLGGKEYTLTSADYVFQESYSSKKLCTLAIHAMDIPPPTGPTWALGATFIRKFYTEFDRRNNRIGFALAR
Description: Test compounds in varying concentrations may be reacted with recombinant human renin in the presence of substrate, e.g., QXL520-γ-Abu-Ile-His-Pro-Phe-His-Leu-Val-Ile-His-Thr-Lys (HiLyteFluo488)-Arg-OH (Anaspec, San Jose, Calif.). The reaction can be followed kinetically using fluorescence (excitation λ=485 nm; emission λ=538 nm). Inhibition constants (IC50) may be calculated by non-linear curve fitting of the compound concentrations and fluorescence intensities to the standard IC50 equation.
Solutions of test compounds in varying concentrations (<2 mM final concentration) are prepared in dimethyl sulfoxide (DMSO) and then diluted into assay buffer comprising 50 mM Hepes, 1 mM EDTA, 1 mM DTT, 0.1 mg/ml BSA, 0.01% Brij35, pH 7.4. Alternatively, the assay can be performed with a high BSA concentration, wherein the buffer contains an additional 2% BSA.
Recombinant human renin (3 nM final concentration) is added to the dilutions and pre-incubated with the compounds for 10 minutes at 37° C. As described in Examples A-C above, human Renin can be obtained by expressing preprorenin (residue 1-406) in mammalian cells, treating the prorenin (residues 24-406) contained in the culture supernatant with trypsin, and isolate the active form (residues 67-406). After pre-incubation, the reaction is initiated with 1 μM of substrate QXL520-γ-Abu-Ile-His-Pro-Phe-His-Leu-Val-Ile-His-Thr-Lys (HiLyteFluo488)-Arg-OH (Anaspec, San Jose, Calif.). The final DMSO in the assay is 5%. The total volume of the reaction mixture is 20 μL, which can be placed on Greiner 384-well small volume plates.
Renin activity may be determined via fluorescence (excitation λ=485 nm; emission λ=538 nm), e.g., on a Molecular Devices SPECTROmax GEMINI XPS. The fluorescence intensity is determined upon the addition of substrate and determined again after incubation at 37° C. for one hour. The fluorescence intensity of a blank (no inhibition) using vehicle alone is also determined. Renin activity is linearly proportional to the change in fluorescence observed (final−initial).
The percent inhibition of Renin at a given compound concentration is defined as:
100%×[1−(Fcompound/Fblank)]
where Fcompound is the observed fluorescence at a given concentration of test compound and Fblank is the observed fluorescence in the presence of vehicle alone.
The pIC50 value (negative log of the molar concentration of the compound that produces 50% inhibition) of a test compound is calculated by non-linear least squares curve fitting of the equation: […]
to percent inhibition versus compound concentration. The 50% inhibitory concentration (IC50) of a test compound is calculated by raising 10 to the negative pIC50 (10^−pIC50).

IC50 [µM] | SMILES
5 to 50 | O=C(CCc1ccccc1)N1CCNC[C@H]1Cc1ccccc1 [Example 1, (R)-1-(2-Benzylpiperazin-1-yl)-3-phenylpropan-1-one]
0.5 to 5 | O=C(CC(c1ccccc1)c1ccccc1)N1CCNC[C@H]1Cc1ccccc1 [Example 2, (R)-1-(2-Benzylpiperazin-1-yl)-3,3-diphenylpropan-1-one]
0.5 to 5 | O=C(Cc1ccccc1-c1ccc(F)cc1)N1CCNC[C@H]1Cc1ccccc1 [Example 3, (R)-1-(2-Benzylpiperazin-1-yl)-2-(4′-fluorobiphenyl-2-yl)ethanone]
5 to 50 | O=C(COc1ccccc1Br)N1CCNC[C@H]1Cc1ccccc1 [Example 4, (R)-1-(2-Benzylpiperazin-1-yl)-2-(2-bromophenoxy)ethanone]
> 50 | O=C(CCC(=O)N1CCNC[C@H]1Cc1ccccc1)c1ccccc1 [Example 5, (R)-1-(2-Benzylpiperazin-1-yl)-4-phenylbutane-1,4-dione]
0.5 to 5 | O=C(C(Cc1ccccc1)c1ccccc1)N1CCNC[C@H]1Cc1ccccc1 (stereo partly drawn) [Example 6, 1-((R)-2-Benzylpiperazin-1-yl)-2,3-diphenylpropan-1-one]
< 0.5 | O=C(CCc1ccccc1Oc1ccccc1)N1CCNC[C@H]1Cc1ccccc1 [Example 7, (R)-1-(2-Benzylpiperazin-1-yl)-3-(2-phenoxyphenyl)propan-1-one]
5 to 50 | O=C(Cc1ccccc1Oc1ccccc1)N1CCNC[C@H]1Cc1ccccc1 [Example 8, (R)-1-(2-Benzylpiperazin-1-yl)-2-(2-phenoxyphenyl)ethanone]
5 to 50 | COc1ccccc1-c1ccccc1CC(=O)N1CCNC[C@H]1Cc1ccccc1 [Example 9, 1-((R)-2-Benzylpiperazin-1-yl)-2-(2′-methoxybiphenyl-2-yl)ethanone]
> 50 | O=C(NC(c1ccccc1)c1ccccc1)N1CCNC[C@H]1Cc1ccccc1 [Example 10, (R)—N-Benzhydryl-2-benzylpiperazine-1-carboxamide]
0.5 to 5 | O=C(Cc1ccccc1-c1ccccc1Cl)N1CCNC[C@H]1Cc1ccccc1 [Example 11, 1-((R)-2-Benzylpiperazin-1-yl)-2-(2′-chlorobiphenyl-2-yl)ethanone]
5 to 50 | O=S(=O)(CCc1ccccc1)N1CCNC[C@H]1Cc1ccccc1 [Example 12, (R)-2-Benzyl-1-(phenethylsulfonyl)piperazine]
0.5 to 5 | O=S(=O)(CC(c1ccccc1)c1ccccc1)N1CCNC[C@H]1Cc1ccccc1 [Example 13, (R)-2-Benzyl-1-(2,2-diphenylethylsulfonyl)piperazine]
0.5 to 5 | Cc1ccc(C(CC(=O)N2CCNC[C@H]2Cc2ccccc2)N2Cc3ccccc3C2=O)cc1 (stereo partly drawn) [Example 14, 2-(3-((R)-2-Benzylpiperazin-1-yl)-3-oxo-1-p-tolylpropyl)isoindolin-1-one]
5 to 50 | O=C(COc1cccc2ccccc12)N1CCNC[C@H]1Cc1ccccc1 [Example 15, (R)-1-(2-Benzylpiperazin-1-yl)-2-(naphthalen-1-yloxy)ethanone]
0.5 to 5 | O=C(CC(Cc1ccccc1)c1ccco1)N1CCNC[C@H]1Cc1ccccc1 (stereo partly drawn) [Example 16, 1-((R)-2-Benzylpiperazin-1-yl)-3-(furan-2-yl)-4-phenylbutan-1-one]
0.5 to 5 | C[C@H](CC(=O)N1CCNC[C@H]1Cc1ccccc1)c1ccccc1 [Example 17, (R)-1-((R)-2-Benzylpiperazin-1-yl)-3-phenylbutan-1-one]

IC50 [µM] | SMILES
5 to 50 | C[C@@H](CC(=O)N1CCNC[C@H]1Cc1ccccc1)c1ccccc1 [Example 18, (S)-1-((R)-2-Benzylpiperazin-1-yl)-3-phenylbutan-1-one]
5 to 50 | O=C(CCCc1ccccc1)N1CCNC[C@H]1Cc1ccccc1 [Example 19, (R)-1-(2-Benzylpiperazin-1-yl)-4-phenylbutan-1-one]
0.5 to 5 | CC1(C)CC(CC(=O)N2CCNC[C@H]2Cc2ccccc2)(c2ccccc2)CCO1 (stereo partly drawn) [Example 20, 1-((R)-2-Benzylpiperazin-1-yl)-2-(2,2-dimethyl-4-phenyltetrahydro-2H-pyran-4-yl)ethanone]
0.5 to 5 | O=C(Oc1ccccc1CCC(=O)N1CCNC[C@H]1Cc1ccccc1)c1ccccc1 [Example 21, (R)-2-(3-(2-Benzylpiperazin-1-yl)-3-oxopropyl)phenyl benzoate]
< 0.5 | O=C(CCc1ccccc1Oc1ccc(Cl)cc1)N1CCNC[C@H]1Cc1ccccc1 [Example 22, (R)-1-(2-Benzylpiperazin-1-yl)-3-(2-(4-chlorophenoxy)phenyl)propan-1-one]
< 0.5 | Cc1cccc(Oc2ccccc2CCC(=O)N2CCNC[C@H]2Cc2ccccc2)c1 [Example 23, (R)-1-(2-benzylpiperazin-1-yl)-3-(2-(m-tolyloxy)phenyl)propan-1-one]
< 0.5 | CC(=O)NCCc1ccccc1Oc1ccccc1CCC(=O)N1CCNC[C@H]1Cc1ccccc1 [Example 24, (R)—N-(2-(2-(3-(2-Benzylpiperazin-1-yl)-3-oxopropyl)phenoxy)phenethyl)acetamide]
< 0.5 | CC(=O)NCCc1cc(C)ccc1Oc1ccc(C)cc1CCC(=O)N1CCNC[C@H]1Cc1ccccc1 [Example 25, (R)—N-(2-(2-(3-(2-Benzylpiperazin-1-yl)-3-oxopropyl)-4-methylphenoxy)-1-methylphenethyl)acetamide]
< 0.5 | CC(=O)NCCc1ccccc1Oc1ccc(C)cc1CCC(=O)N1CCNC[C@H]1Cc1ccccc1 [Example 26, (R)—N-(2-(2-(3-(2-Benzylpiperazin-1-yl)-3-oxopropyl)-4-methylphenoxy)phenethyl)acetamide]
< 0.5 | CC(=O)NCCc1cc(C)ccc1Oc1cc(C)ccc1CCC(=O)N1CCNC[C@H]1Cc1ccccc1 [Example 27]
< 0.5 | CC(=O)NCCc1ccccc1Oc1cc(C)ccc1CCC(=O)N1CCNC[C@H]1Cc1ccccc1 [Example 28, (R)—N-(2-(2-(3-(2-Benzylpiperazin-1-yl)-3-oxopropyl)-5-methylphenoxy)phenethyl)acetamide]
< 0.5 | CC(=O)NCc1ccccc1Oc1ccccc1CCC(=O)N1CCNC[C@H]1Cc1ccccc1 [Example 29, (R)—N-(2-(2-(3-(2-Benzylpiperazin-1-yl)-3-oxopropyl)phenoxy)benzyl)acetamide]
0.5 to 5 | N#Cc1ccccc1Oc1ccccc1CCC(=O)N1CCNC[C@H]1Cc1ccccc1 [Example 30, (R)-2-(2-(3-(2-benzylpiperazin-1-yl)-3-oxopropyl)phenoxy)benzonitrile]
< 0.5 | CN(C)c1cccc(Oc2ccccc2CCC(=O)N2CCNC[C@H]2Cc2ccccc2)c1 [Example 31, (R)-1-(2-Benzylpiperazin-1-yl)-3-(2-(3-(dimethylamino)phenoxy)phenyl)propan-1-one]
0.5 to 5 | CCOc1cccc(Oc2ccccc2CCC(=O)N2CCNC[C@H]2Cc2ccccc2)c1 [Example 32, (R)-1-(2-Benzylpiperazin-1-yl)-3-(2-(3-ethoxyphenoxy)phenyl)propan-1-one]
0.5 to 5 | CC(=O)Nc1cccc(Oc2ccccc2CCC(=O)N2CCNC[C@H]2Cc2ccccc2)c1 [Example 33, (R)—N-(3-(2-(3-(2-Benzylpiperazin-1-yl)-3-oxopropyl)phenoxy)phenyl)acetamide]
0.5 to 5 | CCNC(=O)c1cccc(Oc2ccccc2CCC(=O)N2CCNC[C@H]2Cc2ccccc2)c1 [Example 34, (R)-3-(2-(3-(2-Benzylpiperazin-1-yl)-3-oxopropyl)phenoxy)-N-ethylbenzamide]
